From US20080044904A1, “Glyphosate N-acetyltransferase (GAT) confers glyphosate resistance when expressed in plastids” (priority 2005, published 2008) come the findings set out here.

One experiment relates to wild-type leaf sections. In words: Leaf section test on RMOP culture medium containing glyphosate, wild type control. Conditions: RMOP medium containing 100 μm glyphosate (Glyphosate-isopropylammonium); three-week-old cultures. Format: cell-based, tobacco. The source says:
(§1) Shown are three-week-old cultures initiated from Nt-pMHB125 and Nt-pMHB126 leaves and wild type control. The culture medium and general tissue culture protocols are described in references Svab and Maliga, 1993; and Lutz et al., 2006.
(§2) The ability of leaf sections or stem sections of plants to germinate and/or grow as green plants in a culture containing selective levels of herbicides is a reliable assay of glyphosate resistance (Ye et al. (2003) Plant Physiol., 133:402-410; Ye et al. (2001) Plant J., 25:261-270). Selective levels of glyphosate in the culture medium were in the range of 50 μm to 200 μm, to which plants expressing the CP4 EPSPS gene were resistant. Therefore, sections of the Nt-pMHB125, Nt-pMHB126 and Nt-pMHB127 leaves were inoculated onto RMOP medium containing 100 μm glyphosate (Glyphosate-isopropylammonium). […] Such high level of resistance was sufficient to protect the plants from glyphosate treatment under filed conditions. The new glyphosate resistance (GAT) genes, when expressed in plastids, enable efficient weed control with an environmentally friendly herbicide. Since plastids are not transmitted via pollen in most crops, the GAT gene will not be disseminated via pollen, providing an efficient containment tool (Bock, R. (2001) J. Mol. Biol., 312:425-438; Maliga, P. (2004) Annu. Rev. Plant Biol., 55:289-313).

For experiment [1], the system named is Nt-pMHB125 and Nt-pMHB126 leaves (tobacco cells expressing GAT in chloroplasts). Nature of the experiment: Leaf section test on RMOP culture medium containing glyphosate, plants expressing GAT in chloroplasts. The class given is cell-based.
Source text: as §1, §2

On to `O=C(O)CNCP(=O)(O)O` [glyphosate, N-phosphonomethylglycine], for which the “growth of wild-type leaf sections in the presence of the herbicide” value in the experiment with wild-type leaf sections was “failed to grow and bleached”. Further, the “resistance of tobacco cells expressing GAT in chloroplasts” value in experiment [1] (100 μM glyphosate in the RMOP culture medium, three-week-old cultures from Nt-pMHB125 and Nt-pMHB126 leaves) is listed as “resistant”. Also, the “growth of Nt-pMHB125 and Nt-pMHB126 leaf sections in the presence of the herbicide” value in experiment [1] (RMOP medium containing 100 μm glyphosate (Glyphosate-isopropylammonium), three-week-old cultures) is “formed abundantly proliferating green calli”.
